The assay concerns the target T1, mouse SGLT1 (Mus musculus, UniProt Q8C3K6).
T1 sequence (Q8C3K6 1-665): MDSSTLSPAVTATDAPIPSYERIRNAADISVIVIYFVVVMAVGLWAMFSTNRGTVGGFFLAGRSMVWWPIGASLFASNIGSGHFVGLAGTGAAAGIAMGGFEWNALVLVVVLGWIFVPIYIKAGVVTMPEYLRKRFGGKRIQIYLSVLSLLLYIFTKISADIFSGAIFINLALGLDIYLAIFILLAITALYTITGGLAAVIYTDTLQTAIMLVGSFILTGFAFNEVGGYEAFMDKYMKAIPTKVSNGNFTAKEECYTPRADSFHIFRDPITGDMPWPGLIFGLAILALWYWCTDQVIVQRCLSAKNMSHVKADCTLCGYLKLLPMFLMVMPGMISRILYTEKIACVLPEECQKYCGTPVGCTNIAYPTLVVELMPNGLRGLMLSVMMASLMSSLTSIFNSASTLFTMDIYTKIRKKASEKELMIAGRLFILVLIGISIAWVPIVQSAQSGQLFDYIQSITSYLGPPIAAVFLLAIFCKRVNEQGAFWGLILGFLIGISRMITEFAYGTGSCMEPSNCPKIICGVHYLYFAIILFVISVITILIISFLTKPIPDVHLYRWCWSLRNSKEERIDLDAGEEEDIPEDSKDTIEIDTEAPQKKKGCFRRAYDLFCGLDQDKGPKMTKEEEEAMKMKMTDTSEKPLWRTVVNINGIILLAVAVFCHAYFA
As to the kind of experiment: Sodium-dependent 14C-AMG uptake in CHO-K1 cells expressing mouse SGLT1. Type of assay: cell-based. The settings on record: n = 9. The source says: The cDNA encoding human SGLT1 (slc5a1, NM_000343), human SGLT2 (slc5a2, NM_003041) and mouse SGLT1 (slc5a1, NM_019810.4) are purchased from Openbiosystems, Invitrogen and Openbiosystems, respectively. The cDNA is cloned into pcDNA3.1+ for mammalian expression and is stably transfected into Chinese hamster ovary (CHO)-K1 cells using standard mammalian transfection procedures. An SGLT-expressing sub-clone of each over-expressing cell line is selected based on resistance to neomycin (Geneticin, Invitrogen) and activity in the ^14C-α-methyl-D-glucopyranoside (^14C-AMG) uptake assay (see below). Stable SGLT-expressing cells are maintained using standard cell culture techniques.
The SGLT activity is measured as sodium-dependent ^14C-AMG uptake in the above cell lines described as follows. One hundred μL of culture medium containing 30,000 cells are seeded to each well of a 96-well BioCoat poly-D-lysine plate (Becton Dickson) and cultured at 37° C. overnight. The culture medium is aspirated and cells are washed twice with 200 μL of Reaction Buffer (140 mM NaCl, 2 mM KCl, 1 mM CaCl2, MgCl2, and 14 mM N-2-hydroethylpiperrazine-N′-2-ethanesulfonic acid (Hepes), pH 7.5). The excess buffer is tapped out onto paper towels. Thirty-five μL of Reaction Buffer are added to each well. […] After mixing, the scintillation signal in the plate is counted in a MicroBeta (PerkinElmer). […]

Here are results for one compound from patent publication US9573970B2, “4-{4-[(1E)-4-(2,9-diazaspiro[5.5]undec-2-yl)but-1-en-1-yl]-2-methylbenzyl}-5-(propan-2-yl)-1H-pyrazol-3-yl beta-D glucopyranoside acetate” (Eli Lilly and Company, priority 2013, dated 2017).

A word on the IC50: it is the point on the concentration scale where inhibition reaches its midpoint. Read a high IC50 as weaker potency.

As for `Cc1cc(/C=C/CCN2CCCC3(CCNCC3)C2)ccc1Cc1c(O[C@@H]2O[C@H](CO)[C@@H](O)[C@H](O)[C@H]2O)n[nH]c1C(C)C` [Example 1 (free base), 4-{4-[(1E)-4-(2,9-diazaspiro[5.5]undec-2-yl)but-1-en-1-yl]-2-methylbenzyl}-5-(propan-2-yl)-1H-pyrazol-3-yl beta-D-glucopyranoside], the IC50 was found to be 10 ± 2 nM.
